# Assays:
# Format in all cases: functional
# K562 = assay: Growth inhibition of human K562 cells assessed as cell growth at 10^-5 M incubated for 48 hrs by sulforhodamine B assay relative to control; details: K562, 48 h, read-out: Activity
# RPMI-8226 = assay: Growth inhibition of human RPMI8226 cells assessed as cell growth at 10^-5 M incubated for 48 hrs by sulforhodamine B assay relative to control; details: RPMI-8226, 48 h, read-out: Activity
# SR = assay: Growth inhibition of human SR cells assessed as cell growth at 10^-5 M incubated for 48 hrs by sulforhodamine B assay relative to control; details: read-out: Activity
# EKVX = assay: Growth inhibition of human EKVX cells assessed as cell growth at 10^-5 M incubated for 48 hrs by sulforhodamine B assay relative to control; details: read-out: Activity
# HOP-62 = assay: Growth inhibition of human HOP62 cells assessed as cell growth at 10^-5 M incubated for 48 hrs by sulforhodamine B assay relative to control; details: HOP-62, 48 h, read-out: Activity
# HOP-92 = assay: Growth inhibition of human HOP92 cells assessed as cell growth at 10^-5 M incubated for 48 hrs by sulforhodamine B assay relative to control; details: HOP-92, 48 h, read-out: Activity
# NCI-H226 = assay: Growth inhibition of human NCI-H226 cells assessed as cell growth at 10^-5 M incubated for 48 hrs by sulforhodamine B assay relative to control; details: NCI-H226, 48 h, read-out: Activity
# NCI-H23 = assay: Growth inhibition of human NCI-H23 cells assessed as cell growth at 10^-5 M incubated for 48 hrs by sulforhodamine B assay relative to control; details: NCI-H23, 48 h, read-out: Activity
# NCI-H322M = assay: Growth inhibition of human NCI-H322M cells assessed as cell growth at 10^-5 M incubated for 48 hrs by sulforhodamine B assay relative to control; details: read-out: Activity
# COLO 205 = assay: Growth inhibition of human COLO205 cells assessed as cell growth at 10^-5 M incubated for 48 hrs by sulforhodamine B assay relative to control; details: COLO 205, 48 h, read-out: Activity
# KM12 = assay: Growth inhibition of human KM12 cells assessed as cell growth at 10^-5 M incubated for 48 hrs by sulforhodamine B assay relative to control; details: KM12, 48 h, read-out: Activity
# SW-620 = assay: Growth inhibition of human SW620 cells assessed as cell growth at 10^-5 M incubated for 48 hrs by sulforhodamine B assay relative to control; details: SW-620, 48 h, read-out: Activity
# SF-295 = assay: Growth inhibition of human SF295 cells assessed as cell growth at 10^-5 M incubated for 48 hrs by sulforhodamine B assay relative to control; details: SF-295, 48 h, read-out: Activity
# SF-539 = assay: Growth inhibition of human SF539 cells assessed as cell growth at 10^-5 M incubated for 48 hrs by sulforhodamine B assay relative to control; details: SF-539, 48 h, read-out: Activity
# SNB-19 = assay: Growth inhibition of human SNB19 cells assessed as cell growth at 10^-5 M incubated for 48 hrs by sulforhodamine B assay relative to control; details: SNB-19, 48 h, read-out: Activity
# MDA-MB-435 = assay: Growth inhibition of human MDA-MB-435 cells assessed as cell growth at 10^-5 M incubated for 48 hrs by sulforhodamine B assay relative to control; details: MDA-MB-435, 48 h, read-out: Activity
# SK-MEL-5 = assay: Growth inhibition of human SK-MEL-5 cells assessed as cell growth at 10^-5 M incubated for 48 hrs by sulforhodamine B assay relative to control; details: SK-MEL-5, 48 h, read-out: Activity
# UACC-257 = assay: Growth inhibition of human UACC257 cells assessed as cell growth at 10^-5 M incubated for 48 hrs by sulforhodamine B assay relative to control; details: UACC-257, 48 h, read-out: Activity
# OVCAR-3 = assay: Growth inhibition of human OVCAR3 cells assessed as cell growth at 10^-5 M incubated for 48 hrs by sulforhodamine B assay relative to control; details: OVCAR-3, 48 h, read-out: Activity
# OVCAR-8 = assay: Growth inhibition of human OVCAR8 cells assessed as cell growth at 10^-5 M incubated for 48 hrs by sulforhodamine B assay relative to control; details: OVCAR-8, 48 h, read-out: Activity
# NCI/ADR-RES = assay: Growth inhibition of human NCI/ADR-RES cells assessed as cell growth at 10^-5 M incubated for 48 hrs by sulforhodamine B assay relative to control; details: read-out: Activity
# CAKI-1 = assay: Growth inhibition of human Caki1 cells assessed as cell growth at 10^-5 M incubated for 48 hrs by sulforhodamine B assay relative to control; details: CAKI-1, 48 h, read-out: Activity
# RXF 393 = assay: Growth inhibition of human RXF393 cells assessed as cell growth at 10^-5 M incubated for 48 hrs by sulforhodamine B assay relative to control; details: RXF 393, 48 h, read-out: Activity
# UO-31 = assay: Growth inhibition of human UO31 cells assessed as cell growth at 10^-5 M incubated for 48 hrs by sulforhodamine B assay relative to control; details: UO-31, 48 h, read-out: Activity
# MCF7 = assay: Growth inhibition of human MCF7 cells at 10^-5 M incubated for 48 hrs by sulforhodamine B assay relative to control; details: MCF7, 48 h, read-out: GI
# MDA-MB-231 = assay: Growth inhibition of human MDA-MB-231 cells assessed as cell growth at 10^-5 M incubated for 48 hrs by sulforhodamine B assay relative to control; details: MDA-MB-231, 48 h, read-out: Activity
# BT-549 = assay: Growth inhibition of human BT549 cells assessed as cell growth at 10^-5 M incubated for 48 hrs by sulforhodamine B assay relative to control; details: BT-549, 48 h, read-out: Activity
# T47D = assay: Growth inhibition of human T47D cells at 10^-5 M incubated for 48 hrs by sulforhodamine B assay relative to control; details: read-out: GI
Structure (SMILES),growth at 10 µM (K562),growth at 10 µM (RPMI-8226),growth at 10 µM (SR),growth at 10 µM (EKVX),growth at 10 µM (HOP-62),growth at 10 µM (HOP-92),growth at 10 µM (NCI-H226),growth at 10 µM (NCI-H23),growth at 10 µM (NCI-H322M),growth at 10 µM (COLO 205),growth at 10 µM (KM12),growth at 10 µM (SW-620),growth at 10 µM (SF-295),growth at 10 µM (SF-539),growth at 10 µM (SNB-19),growth at 10 µM (MDA-MB-435),growth at 10 µM (SK-MEL-5),growth at 10 µM (UACC-257),growth at 10 µM (OVCAR-3),growth at 10 µM (OVCAR-8),also measured
O=C1NC(=O)C(=Cc2cccn2CCCCCCn2c3ccccc3c(=O)c3ccccc32)C(=O)N1,74.7%,73.9%,72.2%,100%,93.1%,85%,89.5%,84.2%,94.1%,105%,97.1%,96.9%,97.6%,107%,94.2%,102%,85.7%,103%,103%,93%,growth at 10 µM (NCI/ADR-RES): 92.9%; growth at 10 µM (CAKI-1): 92.8%; growth at 10 µM (RXF 393): 106%; growth at 10 µM (UO-31): 70.3%; inhibition of growth at 10 µM (MCF7): 24%; growth at 10 µM (MDA-MB-231): 94.6%; growth at 10 µM (BT-549): 93.9%; inhibition of growth at 10 µM (T47D): 25%
O=C1/C(=C\c2cccn2CCCCCCn2c3ccccc3c(=O)c3ccccc32)c2ccccc2N1c1c(Cl)cccc1Cl,97.9%,93.4%,91.5%,89.5%,102%,75.3%,81.9%,101%,98.6%,92.8%,69.8%,108%,99.2%,104%,99.2%,105%,94.7%,99.6%,102%,98.5%,growth at 10 µM (NCI/ADR-RES): 104%; growth at 10 µM (CAKI-1): 87.8%; growth at 10 µM (RXF 393): 97%; growth at 10 µM (UO-31): 70.2%; inhibition of growth at 10 µM (MCF7): 85%; growth at 10 µM (MDA-MB-231): 101%; growth at 10 µM (BT-549): 104%; inhibition of growth at 10 µM (T47D): 57%
O=C1/C(=C\c2cccn2CCCCCn2c3ccccc3c(=O)c3ccccc32)c2ccccc2N1c1c(Cl)cccc1Cl,97.6%,92.3%,92.3%,94.6%,102%,65.6%,91.6%,98%,110%,72.2%,69.4%,95.7%,103%,97%,98.5%,108%,96.2%,100%,99.1%,97.7%,growth at 10 µM (NCI/ADR-RES): 97.3%; growth at 10 µM (CAKI-1): 74.4%; growth at 10 µM (RXF 393): 100%; growth at 10 µM (UO-31): 75.5%; inhibition of growth at 10 µM (MCF7): 87%; growth at 10 µM (MDA-MB-231): 97.5%; growth at 10 µM (BT-549): 97.1%; inhibition of growth at 10 µM (T47D): 72%
O=C1Nc2ccccc2/C1=C/c1cccn1CCCCn1c2ccccc2c(=O)c2ccccc21,59.5%,33.5%,80.1%,86.1%,77.4%,59.5%,75.2%,77.4%,101%,69.8%,13%,98.8%,101%,93%,98.4%,92.7%,38.6%,105%,86.7%,58.8%,growth at 10 µM (NCI/ADR-RES): 73.9%; growth at 10 µM (CAKI-1): 69.5%; growth at 10 µM (RXF 393): 88.1%; growth at 10 µM (UO-31): 49.6%; inhibition of growth at 10 µM (MCF7): 96%; growth at 10 µM (MDA-MB-231): 64.7%; growth at 10 µM (BT-549): 74.5%; inhibition of growth at 10 µM (T47D): 95%
O=C1/C(=C\c2cccn2CCCCn2c3ccccc3c(=O)c3ccccc32)c2ccccc2N1c1c(Cl)cccc1Cl,91.5%,97.4%,87.7%,88.8%,104%,71%,89.5%,101%,103%,70%,90.8%,105%,98.8%,98.9%,98.2%,103%,98.7%,101%,118%,98.3%,growth at 10 µM (NCI/ADR-RES): 101%; growth at 10 µM (CAKI-1): 87.4%; growth at 10 µM (RXF 393): 97.5%; growth at 10 µM (UO-31): 80.8%; inhibition of growth at 10 µM (MCF7): 68%; growth at 10 µM (MDA-MB-231): 98.4%; growth at 10 µM (BT-549): 105%; inhibition of growth at 10 µM (T47D): 33%
